Assay results from patent US12297207B2, “Maytansinoid derivatives, conjugates thereof, and methods of use” (priority 2015, dated 2025).
Where two headings read alike, the source gives them in different places.

Key:
[1] = tested on: T47D ductal carcinoma line (PRLR+); experiment: In vitro cytotoxicity assay (CellTiter-Glo), T47D cells; assay type: cell-based, human; conditions: for IC50: 5 days
Experimental: The present example provides cytotoxicity assays for conjugates provided herein. To evaluate the ability of anti-PRLR antibodies conjugated with 63, 60, 77, and 78 to kill a PRLR expressing cell line, an in vitro cytotoxicity assay using a T47D ductal carcinoma line (ATCC, #HTB-133), which was previously determined to express >27,000 copies of human PRLR at its cell surface, was utilized.
For the assay, T47D cells were seeded onto white 96 well plates at 2,000 cells/well in media containing DMEM supplemented with 10% FBS, NEAA, and pencillin/streptomycinin (complete media). They were grown overnight at 37° C. in 5% CO2. To determine cell viability curves, the following day antibody drug conjugates, unconjugated antibodies, or free payloads were added to the cells at final serial dilutions ranging from 100 nM to 0.01 nM in complete medium and then incubated for an additional 5 days. Luciferase activity was detected after the addition of CellTiter-Glo™ reagent (Promega, G7571) to each well, which contains reagents to lyse the remaining viable cells to release their ATP, ATPase inhibitors to prevent degradation of the ATP, as well as luciferin and luciferase to catalyse the luminescent reaction. Viable cells prior to addition of CellTiter-Glo will be the only source of ATP since the dead cells in culture will not synthesis ATP and any of their released ATP will be destroyed via endogenous ATPases. Relative light units (RLUs) were measured on a Victor luminometer (PerkinElmer) and the results were determined using a four-parameter logistic equation over a 10-point response curve (GraphPad Prism). All measured values and calculated IC50 values were corrected for payload equivalents. All IC50 values are expressed in nM concentration and percent kill is reported for the highest concentration tested.

C4-2 (PSMA+) cells = experiment: In vitro cytotoxicity assay (CCK8 viability), C4-2 cells; assay type: cell-based; conditions: for IC50: read-out: C4-2 IC50
Experimental: (§1) In this Example, the ability of various antibody-drug conjugates or their associated payloads to kill antigen-expressing tumor cells in vitro was assessed.
(§2) Ovcar3 (Muc16+) or C4-2 (PSMA+) cells were seeded in 96 well plates at 3000 (C42) cells per well in complete growth media and grown overnight. For cell viability curves, serially diluted conjugates or payloads were added to the cells at final concentrations ranging from 300 nM to 5 pM and incubated for 3 days. To measure viability, cells were incubated with CCK8 (Dojindo) for the final 1-3 hours and the absorbance at 450 nm (OD450) was determined on a Victor (Perkin Elmer). Background OD450 levels determined from digitonin ([…]) treated cells were subtracted from all wells and viability is expressed as a percentage of the untreated controls. IC50 values were determined from a four-parameter logistic equation over a 10-point response curve (GraphPad Prism). All conjugate curves and IC50 values are corrected for payload equivalents.

Ovcar3 (Muc16+) cells = experiment: In vitro cytotoxicity assay (CCK8 viability), Ovcar3 cells; assay type: cell-based; conditions: for IC50: read-out: Ovcar3 IC50
Experimental: as §1, §2

[2] = Table 5, payloads only, read-out: T47D IC50
[3] = Table 5, payloads only, highest concentration tested

Compound: COc1cc2cc(c1Cl)N(C)C(=O)C[C@H](OC(=O)[C@H](C)N(C)C(=O)c1ccc(N)c(Cl)c1)[C@]1(C)O[C@H]1[C@H](C)[C@@H]1C[C@@](O)(NC(=O)O1)[C@H](OC)/C=C/C=C(\C)C2 [Compound 43, Maytansin-N-methyl-L-alanine-(3-chloro-4-amino)benzamide]
- IC50 [1, 2]: 0.01 nM
- T47D % kill [1, 3]: 71%

Compound: COc1cc2cc(c1Cl)N(C)C(=O)CC(OC(=O)C(C)N(C)C(=O)c1cc(N)ccc1F)C1(C)OC1C(C)C1CC(O)(NC(=O)O1)C(OC)C=CC=C(C)C2 [Compound 71, Maytansin-N-methyl-L-alanine-N-(2-fluoro-5-amino)benzamide]
- IC50 [1, 2]: 0.73 nM
- T47D % kill [1, 3]: 68%

Compound: COc1ccc(C(=O)N(C)[C@@H](C)C(=O)O[C@H]2CC(=O)N(C)c3cc(cc(OC)c3Cl)C/C(C)=C/C=C/[C@@H](OC)[C@@]3(O)C[C@H](OC(=O)N3)[C@@H](C)[C@@H]3O[C@@]23C)c(N)c1 [Compound 86, Maytansin-N-methyl-L-alanine-N-(4-methoxy-2-amino)benzamide]
- C4-2 % kill (C4-2 (PSMA+) cells; Table 5, payloads only): 90%
- IC50 (C4-2 (PSMA+) cells; Table 5, payloads only): 0.73 nM

Compound: COc1ccc(N)cc1C(=O)N(C)[C@@H](C)C(=O)O[C@H]1CC(=O)N(C)c2cc(cc(OC)c2Cl)C/C(C)=C/C=C/[C@@H](OC)[C@@]2(O)C[C@H](OC(=O)N2)[C@@H](C)[C@@H]2O[C@@]12C [Compound 65, Maytansin-N-methyl-L-alanine-N-(2-methoxy-5-amino)benzamide]
- IC50 [1, 2]: 1.13 nM
- T47D % kill [1, 3]: 72%

Compound: COc1cc2cc(c1Cl)N(C)C(=O)CC(OC(=O)C(C)N(C)C(=O)c1ccc(N)c(O)c1)C1(C)OC1C(C)C1CC(O)(NC(=O)O1)C(OC)C=CC=C(C)C2 [Compound 82, Maytansin-N-methyl-L-alanine-N-(3-hydroxy-4-amino)benzamide]
- C4-2 % kill (C4-2 (PSMA+) cells; Table 5, payloads only): 93%
- IC50 (C4-2 (PSMA+) cells; Table 5, payloads only): 19.9 nM

Compound: COc1cc2cc(c1Cl)N(C)C(=O)C[C@H](OC(=O)[C@H](C)N(C)C(=O)c1cccc(N)c1)[C@]1(C)O[C@H]1[C@H](C)[C@@H]1C[C@@](O)(NC(=O)O1)[C@H](OC)/C=C/C=C(\C)C2 [Compound 73, Maytansin-N-methyl-L-alanine-N-(3-amino)benzamide]
- IC50 [1, 2]: 0.57 nM
- T47D % kill [1, 3]: 73%

Compound: COc1cc2cc(c1Cl)N(C)C(=O)C[C@H](OC(=O)[C@H](C)N(C)C(=O)c1ccc(N)c(Br)c1)[C@]1(C)O[C@H]1[C@H](C)[C@@H]1C[C@@](O)(NC(=O)O1)[C@H](OC)/C=C/C=C(\C)C2 [Compound 47, Maytansin-N-methyl-L-alanine-(3-bromo-4-amino)benzamide]
- IC50 [1, 2]: 0.01 nM
- T47D % kill [1, 3]: 72%

Compound: COc1ccc(C(=O)N(C)[C@@H](C)C(=O)O[C@H]2CC(=O)N(C)c3cc(cc(OC)c3Cl)C/C(C)=C/C=C/[C@@H](OC)[C@@]3(O)C[C@H](OC(=O)N3)[C@@H](C)[C@@H]3O[C@@]23C)cc1N [Compound 67, Maytansin-N-methyl-L-alanine-N-(3-amino-4-methoxy)benzamide]
- IC50 [1, 2]: 0.19 nM
- T47D % kill [1, 3]: 71%

Compound: COc1cc2cc(c1Cl)N(C)C(=O)C[C@H](OC(=O)[C@H](C)N(C)C(=O)c1cc(F)c(N)cc1Cl)[C@]1(C)O[C@H]1[C@H](C)[C@@H]1C[C@@](O)(NC(=O)O1)[C@H](OC)/C=C/C=C(\C)C2 [Compound 37, Maytansin-N-methyl-L-alanine-N-(2-chloro-4-amino-5-fluoro)benzamide]
- C4-2 % kill (C4-2 (PSMA+) cells; Table 2, payloads only): 86%
- IC50 (C4-2 (PSMA+) cells; Table 2, payloads only): 0.01 nM
- C4-2 % kill (C4-2 (PSMA+) cells; Table 5, payloads only): 86%
- IC50 (C4-2 (PSMA+) cells; Table 5, payloads only): 0.01 nM
- Ovcar3 % kill (Ovcar3 (Muc16+) cells; Table 2, payloads only): 94%
- IC50 (Ovcar3 (Muc16+) cells; Table 2, payloads only): < 0.01 nM
- Ovcar3 % kill (Ovcar3 (Muc16+) cells; Table 5, payloads only): 94%
- IC50 (Ovcar3 (Muc16+) cells; Table 5, payloads only): < 0.01 nM

Compound: COc1cc2cc(c1Cl)N(C)C(=O)C[C@H](OC(=O)[C@H](C)N(C)C(=O)c1ccccc1N)[C@]1(C)O[C@H]1[C@H](C)[C@@H]1C[C@@](O)(NC(=O)O1)[C@H](OC)/C=C/C=C(\C)C2 [Compound 84, Maytansin-N-methyl-L-alanine-N-(2-amino)benzamide]
- C4-2 % kill (C4-2 (PSMA+) cells; Table 5, payloads only): 88%
- IC50 (C4-2 (PSMA+) cells; Table 5, payloads only): 0.07 nM

Compound: COc1cc2cc(c1Cl)N(C)C(=O)C[C@H](OC(=O)[C@H](C)N(C)C(=O)c1ccc(N)c(F)c1)[C@]1(C)O[C@H]1[C@H](C)[C@@H]1C[C@@](O)(NC(=O)O1)[C@H](OC)/C=C/C=C(\C)C2 [Compound 41, Maytansin-N-methyl-L-alanine-(3-fluoro-4-amino)benzamide]
- IC50 [1, 2]: 0.03 nM
- T47D % kill [1, 3]: 72%

Compound: COc1cc2cc(c1Cl)N(C)C(=O)CC(OC(=O)C(C)N(C)C(=O)c1ccc(N)c3cccnc13)C1(C)OC1C(C)C1CC(O)(NC(=O)O1)C(OC)C=CC=C(C)C2 [Compound 45, Maytansin-N-methyl-L-alanine-(5-amino-8-carboxyquinoline)carboxamide]
- IC50 [1, 2]: 3.73 nM
- T47D % kill [1, 3]: 72%

Compound: COc1cc2cc(c1Cl)N(C)C(=O)C[C@H](OC(=O)[C@H](C)N(C)C(=O)c1ccc(N)c(S(C)(=O)=O)c1)[C@]1(C)O[C@H]1[C@H](C)[C@@H]1C[C@@](O)(NC(=O)O1)[C@H](OC)/C=C/C=C(\C)C2 [Compound 80, Maytansin-N-methyl-L-alanine-N-(3-methylsulfonyl-4-amino)benzamide]
- C4-2 % kill (C4-2 (PSMA+) cells; Table 5, payloads only): 91%
- IC50 (C4-2 (PSMA+) cells; Table 5, payloads only): 1.3 nM

Compound: COc1cc(C(=O)N(C)[C@@H](C)C(=O)O[C@H]2CC(=O)N(C)c3cc(cc(OC)c3Cl)C/C(C)=C/C=C/[C@@H](OC)[C@@]3(O)C[C@H](OC(=O)N3)[C@@H](C)[C@@H]3O[C@@]23C)ccc1N [Compound 49, Maytansin-N-methyl-L-alanine-(3-methoxy-4-amino)benzamide]
- IC50 ([1]; corrected for payload equivalents, read-out: IC50 (cytotoxicity of T47D cells)): 0.03 nM
- maximum percent killing ([1]; T47D cells, highest concentration tested): 69%
- IC50 [1, 2]: 0.06 nM
- T47D % kill [1, 3]: 70%

Compound: COc1cc2cc(c1Cl)N(C)C(=O)C[C@H](OC(=O)[C@H](C)N(C)C(=O)c1cc(N)cc(F)c1)[C@]1(C)O[C@H]1[C@H](C)[C@@H]1C[C@@](O)(NC(=O)O1)[C@H](OC)/C=C/C=C(\C)C2 [Compound 69, Maytansin-N-methyl-L-alanine-N-(3-amino-5-fluoro)benzamide]
- IC50 [1, 2]: 0.39 nM
- T47D % kill [1, 3]: 73%

Compound: COc1cc2cc(c1Cl)N(C)C(=O)CC(OC(=O)C(C)N(C)C(=O)c1ccc(N)c(C)c1)C1(C)OC1C(C)C1CC(O)(NC(=O)O1)C(OC)C=CC=C(C)C2 [Compound 53, Maytansin-N-methyl-L-alanine-(3-methyl-4-amino)benzamide]
- IC50 [1, 2]: 0.2 nM
- T47D % kill [1, 3]: 72%

Compound: COc1cc2cc(c1Cl)N(C)C(=O)C[C@H](OC(=O)[C@H](C)N(C)C(=O)c1ccc(N)c(N3CCOCC3)c1)[C@]1(C)O[C@H]1[C@H](C)[C@@H]1C[C@@](O)(NC(=O)O1)[C@H](OC)/C=C/C=C(\C)C2 [Compound 88, Maytansin-N-methyl-L-alanine-N-(3-morpholino-4-amino)benzamide]
- C4-2 % kill (C4-2 (PSMA+) cells; Table 5, payloads only): 89%
- IC50 (C4-2 (PSMA+) cells; Table 5, payloads only): 0.05 nM

Compound: COc1cc2cc(c1Cl)N(C)C(=O)C[C@H](OC(=O)[C@H](C)N(C)C(=O)c1ccc(N)cc1C)[C@]1(C)O[C@H]1[C@H](C)[C@@H]1C[C@@](O)(NC(=O)O1)[C@H](OC)/C=C/C=C(\C)C2 [Compound 51, Maytansin-N-methyl-L-alanine-(2-methyl-4-amino)benzamide]
- IC50 [1, 2]: 0.49 nM
- T47D % kill [1, 3]: 72%

Compound: COc1cc2cc(c1Cl)N(C)C(=O)C[C@H](OC(=O)[C@H](C)N(C)C(=O)c1cc(F)c(N)cc1F)[C@]1(C)O[C@H]1[C@H](C)[C@@H]1C[C@@](O)(NC(=O)O1)[C@H](OC)/C=C/C=C(\C)C2 [Compound 39, Maytansin-N-methyl-L-alanine-N-(2,5-difluoro-4-amino)benzamide]
- IC50 [1, 2]: 0.02 nM
- T47D % kill [1, 3]: 70%

Compound: COc1cc2cc(c1Cl)N(C)C(=O)C[C@H](OC(=O)[C@H](C)N(C)C(=O)c1ccc(N)c3ncccc13)[C@]1(C)O[C@H]1[C@H](C)[C@@H]1C[C@@](O)(NC(=O)O1)[C@H](OC)/C=C/C=C(\C)C2 [Compound 55, Maytansin-N-methyl-L-alanine-(8-amino-5-carboxyquinoline)carboxamide]
- IC50 [1, 2]: 0.18 nM
- T47D % kill [1, 3]: 75%

Compound: COc1cc2cc(c1Cl)N(C)C(=O)C[C@H](OC(=O)[C@H](C)N(C)C(=O)c1ccc(N)c(NC(C)=O)c1)[C@]1(C)O[C@H]1[C@H](C)[C@@H]1C[C@@](O)(NC(=O)O1)[C@H](OC)/C=C/C=C(\C)C2 [Compound 90, Maytansin-N-methyl-L-alanine-N-(3-acetamido-4-amino)benzamide]
- C4-2 % kill (C4-2 (PSMA+) cells; Table 5, payloads only): 86%
- IC50 (C4-2 (PSMA+) cells; Table 5, payloads only): > 100 nM
